According to US10617659B2, “Valproate as a topical anti-fungal treatment” (Wayne State University, priority 2016, dated 2020):

What was measured:
[1] = tested on: Wild type Saccharomyces cerevisiae cells (strain BY4741); assay: Growth of yeast cells in the presence or absence of VPA and/or NaCl (absorbance at 550 nm); type: cell-based; conditions: single agent (VPA or NaCl) in synthetic medium, 30° C.
Description: The combined effect of osmotic stress and valproate (VPA) is deleterious to yeast cells. Wild type Saccharomyces cerevisiae cells (strain BY4741) were grown in synthetic medium in the presence or absence of VPA and/or NaCl. Cells were incubated at 30° C., and growth was monitored spectrophotometrically by measuring absorbance at 550 nm.

[2] = tested on: Candida albicans (Strain Sc 5314); assay: Hyphae formation in Candida cells, serum-induced (percentage of cells forming hyphal structures); type: cell-based; conditions: in the presence of VPA
Description: Hyphae formation is at its peak after 3 hours of incubation at 37° C. at 200 rpm. An overnight culture of Candida albicans (Strain Sc 5314) was prepared using serum-free RPMI-64 medium. Cells were pelleted at 7,500×g and resuspended in RPMI-64 supplemented with 10% Fetal Bovine Serum (FBS) to induce hyphae formation. Cultures were incubated at 37° C. in a rotary shaker at 200 rpm. Samples were drawn out at one-hour intervals and observed for development of hyphal structures.
(§1) An overnight culture of C. albicans was prepared using serum-free RPMI-64 medium. Cells were pelleted at 7,500×g and resuspended in RPMI-64/10% FBS with or without 0.1M NaCl and/or 2 mM VPA as indicated. Cultures were incubated at 37° C. in a rotary shaker at 200 rpm for 3 hours. For each sample, 300-500 cells were counted and the percentage of cells forming hyphal structures was calculated. Values represent the mean of three independent experiments±S.E. (error bars).
as §1, with “sorbitol” for “NaCl”, “Values represent the mean of three independent experiments±S.E. (error bars).” left out

| SMILES | Growth decreased [1] [%] | Transformation of Candida yeast cells into hyphae forming cells [2] |
| --- | --- | --- |
| [Cl-].[Na+] [NaCl, sodium chloride] | 50 | – |
| CCCC(CCC)C(=O)O [VPA, Valproic acid (di-n-propyl acetic acid)] | 50 | greatly reduced |
